Molecular target: T1, human CB1 receptor (Homo sapiens, UniProt P21554)
T1 construct: gene CNR1
T1 sequence (P21554 whole entry): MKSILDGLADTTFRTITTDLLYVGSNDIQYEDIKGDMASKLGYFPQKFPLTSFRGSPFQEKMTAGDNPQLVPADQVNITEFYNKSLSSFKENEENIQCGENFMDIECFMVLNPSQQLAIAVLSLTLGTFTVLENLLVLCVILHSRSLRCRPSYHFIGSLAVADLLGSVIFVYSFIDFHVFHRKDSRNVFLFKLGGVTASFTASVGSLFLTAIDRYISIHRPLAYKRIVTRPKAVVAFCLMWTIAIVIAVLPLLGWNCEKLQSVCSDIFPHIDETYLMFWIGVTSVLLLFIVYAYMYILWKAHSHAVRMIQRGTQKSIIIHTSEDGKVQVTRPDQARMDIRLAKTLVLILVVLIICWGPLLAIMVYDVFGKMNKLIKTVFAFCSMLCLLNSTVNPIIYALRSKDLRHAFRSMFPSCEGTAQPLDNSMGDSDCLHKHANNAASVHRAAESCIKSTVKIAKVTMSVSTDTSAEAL

CCCCCCCc1cc(O)c2c(c1)OC(C)(C)[C@@H]1CCC(C)=C[C@@H]21 [(-)-trans-Δ^9-THCP, (6aR,10aR)-3-heptyl-6,6,9-trimethyl-6a,7,8,10a-tetrahydro-6H-benzo[c]chromen-1-ol]
Ki: 1.2 nM
